# What was measured:
# Male Sprague Dawley rats [1] = assay: Formaldehyde test, analgesic activity, late phase; assay type: in vivo, rat; settings: for Paw licking Score observed at 40 mg/Kg / Paw lifting Score observed at 40 mg/Kg: 40 mg/Kg ip 15 min before formaldehyde 2.5%, late phase 22.5-27.5 min, maximum score 10
# Method: The analgesic activity of the formula (1) compounds and of milnacipran, chosen as reference compound, was determined using a conventional pain module in which formaldehyde is injected to cause a painful sensation in animals (Eur. J. Pharmacol. 2001, 421, 109). The rats (Male Sprague Dawley rats (ICO: OFA SD [IOPS], Iffa Credo, France) are placed in observation boxes in Plexiglas above an angled mirror to facilitate observation of their hind paws. After thirty minutes habituation, the animals are given an injection of formaldehyde diluted to 2.5% on the plantar surface of the right hind paw. The injection of formaldehyde produces behavioural responses which occur in two phases: • an early phase, 0 to 5 min after injection of formaldehyde, corresponding to stimulation of the receptors specialized in the transmission of nociceptive stimuli. • a late phase which occurs between 20 and 30 min after injection. This phase corresponds to the stimulation of receptors by inflammatory mediators and/or to hyperexcitability of the dorsal horn induced during the first phase. This later phase therefore involves central sensitization and causes pain more representative of neuropathic pain compared with the pain which occurs during the first phase. On this account, only the results obtained in this later phase are taken into consideration in the present application. To study the compounds of the invention, we selected two expressions of painful behaviour (paw licking, lifting of injected paw) and chose as observation period the period which corresponds to the late phase (i.e. 22.5-27.5 min). During this 5 min phase, the animals are observed every 30 s and the following behaviours are recorded: licking or non-licking of the injected hind paw and lifting or not of the injected hind paw. Ten observations give a maximum score of 10 for each parameter. The products of the invention are given via intra-peritoneal route 15 min before the injection of formaldehyde.
# adult rat = assay: Ultrasonic vocalizations (USV) test, antistress/anxiolytic activity; assay type: in vivo; settings: 22 kHz vocalizations
# Method: Antistress/anxiolytic activity was determined on a conventional model using ultrasonic vocalizations (USVs) emitted by an adult rat when subjected to stress (Eur. J. Pharmacol. 2003, 463, 133).
# The experiments were conducted in standard operative cages (250×320×250 mm) insulated from noise and light. The floor of the cages is covered with a grid in stainless steel and connected to an electric shock generator delivering a fixed intensity of 0.4 mA. The device is provided on one of its walls with a light source (2 lux). The ULTRAVOX system (Noldus, Wageningen, Pays Bas) is used to record ultrasonic vocalizations at a frequency defined by an ultrasound detector, an audio-filter box and acquisition software. For this experiment, the capture frequency was set at 22 kHz. The software allows the recording of all vocalizations of 22 kHz lasting a time of more 100 ms emitted by the animals. The test starts with a habituation session of 11 min 25 s, during which the animals are individually placed in the operative device without being subjected to conditioning (neither light nor electric shock).
# During a second phase, the animals are subjected to a conditioning phase of 3 sessions given over 3 consecutive days. […]
# Male Sprague Dawley rats [2] = assay: Forced swimming test, antidepressant activity; assay type: in vivo, rat; settings: 40 mg/Kg ip, single administration 30 min before test; 5 min observation; FIG. 1
# Method: The antidepressant activity of the compounds of the invention was evidenced by the forced swimming test in rats (Eur. J. Pharmacol. 1978, 47, 379). This model is widely used since it is predictive of antidepressant activity in man.
# The rats (Male Sprague Dawley rats (ICO: OFA SD [IOPS], Iffa Credo, France), are placed in a cylinder (height 45 cm and diameter 20 cm) filled with water at 25° C.±0.5 up to a height of 17 cm. This height allows the rats to swim or float without their paws touching the bottom of the cylinder. 24 h before the test day, the rats are placed in the cylinder for 15 min, after which time they no longer attempt to escape and remain immobile. On the test day, the animals are put back in the cylinder and the duration of immobility of the animal is measured and monitored using audiovisual recording for 5 min. The products of the invention are administered via ip route 30 min before the test. A rat is considered to be immobile when it allows itself to float and only makes small movements to remain on the surface.
molecule,measurement,setting,value
"CCN(CC)C(=O)[C@@]1(c2ccccc2)C[C@H]1CN (racemic) [milnacipran, cis-(±)-N,N-diethyl-(1-phenyl-2-aminomethyl)-cyclopropanecarboxamide, reference compound]",Paw licking Score observed at 40 mg/Kg,Male Sprague Dawley rats [1],2.0 ± 0.8
same,Paw lifting Score observed at 40 mg/Kg,Male Sprague Dawley rats [1],6.3 ± 1.4
same,Duration of USVs minimum significant dose (MSD),adult rat,10 mg/kg
same,Duration of immobility (effect in words),Male Sprague Dawley rats [2],no effect
"(±)-cis-N,N-diethyl (1-phenyl-2-aminomethyl)-cyclobutanecarboxamide [Compound 1a]",Paw licking Score observed at 40 mg/Kg,Male Sprague Dawley rats [1],1.0 ± 0.4
same,Paw lifting Score observed at 40 mg/Kg,Male Sprague Dawley rats [1],3.7 ± 1.1
same,Paw lifting and paw licking in late phase (effect in words),"Male Sprague Dawley rats [1]; ip, late phase of formaldehyde test",significantly reduces both paw lifting and paw licking
same,Duration of USVs minimum significant dose (MSD),adult rat,10 mg/kg
same,Duration of immobility (effect in words),Male Sprague Dawley rats [2],significantly decreasing the duration of immobility

# Source: patent US8455550B2, “Derivatives of aminocyclobutane or aminocyclobutene, their method of preparation and their use as medical products” (Pierre Fabre Medicament, priority 2009, dated 2013)
